From patent publication US6554620B1, “Aqueous disinfectant/sterilizing agent for foods” (priority 2001, dated 2003)
Several values for one entry are separate records, joined by “and”; a condition that tells them apart may be missing. Identical values can stand only once. Like-named read-outs stand apart in the source and are kept apart here.

Tests used:
[1] = test system: Salmonella typhimurium TA98; experiment: Reverse mutation screening assay; format: cell-based
Description: (§1) The test was conducted at Biosafety Research Center for Foods, Drugs and Pesticides, in Shizuoka, Japan.

[2] = test system: Salmonella typhimurium TA100; experiment: Reverse mutation screening assay; format: cell-based
Description: as §1

[3] = test system: Aspergillus niger (IFO 4414); experiment: Efficacy comparison (MIC method) of hinokitiol as single substance and the invented agent; format: cell-based; parameters: key: growth of bacteria is shown as “+”; no growth is shown as “−”; conditions: 7 days at 30° C.
Description: (§2) Escherihia coli (IFO 3972) and Aspergillus niger (IFO 4414) were used utilizing the minimum inhibitory method (MIC) to conduct a comparison testing the efficacy of hinokitiol as a single substance and the invented aqueous disinfectant.
(§3) Type II of the invented agent as previously described, having a hinokitiol concentration of 0.1 weight % (1000 ppm) was diluted 10 times, 20 times, 50 times, and 100 times and standard agar plate for E-coli and potato dextrose agar plate for aspergillus niger were prepared for each concentration. With hinokitiol as single substance, for 1000 g of water, 1 g of hinokitiol was used to make 0.1% solution, and this was diluted 10 times, 20 times, 50 times, and 100 times and standard agar plates and potato dextrose plates were prepared at each concentration. E-coli and aspergillus niger were implanted to the plate and cultivated for 7 days at 30° C. and the growth of the bacteria was observed. The result are shown in Table 4 below, where growth of bacteria is shown as “+”, and no growth is shown as “−”.

[4] = Water solubility of hinokitiol; format: physicochemical
Text: It has been said that the water solubility of hinokitiol as a single substance, in weight is maximum 0.2 weight %. However, in our experiment, we could not make it more than 0.1 weight %.
With this invention, by mixing hinokitiol with the extract of aloe vera, green tea, low striped bamboo and dokudami, it is possible to make a 1.0 weight % water solution without difficulty. In addition to the above mixture, we have succeeded in making 10 weight % of concentration of hinokitiol in water basis by adding glycerin fatty acid ester as surface active agent and cara saponine, which is an emulsifier. Alcohol (ethanol) is not required as an ingredient to achieve the above noted high concentration of hinokitiol.
It is known fact that with the addition of ethanol, it is possible to make 5 weight % water solution but for some foods, adding alcohol is not suitable and can change the taste of foods. Therefore, this invention of non-alcoholic water soluble disinfectant solution has particular significance.

[5] = test system: Escherihia coli (IFO 3972); experiment: Efficacy comparison (MIC method) of hinokitiol as single substance and the invented agent; format: cell-based, Escherichia coli; parameters: key to growth: growth of bacteria is shown as “+”; no growth is shown as “−”; conditions: 7 days at 30° C.
Description: as §2, §3

[6] = cited from earlier work
[7] = positive control requiring S9 mix, 0.5 μg/plate, Table 15
[8] = positive control requiring S9 mix, 0.5 μg/plate, Table 16
[9] = positive control requiring S9 mix, 1.0 μg/plate, Table 15
[10] = positive control requiring S9 mix, 1.0 μg/plate, Table 16
[11] = positive control not requiring S9 mix, 0.1 μg/plate, Table 15
[12] = positive control not requiring S9 mix, 0.1 μg/plate, Table 16
[13] = positive control not requiring S9 mix, 0.01 μg/plate, Table 15
[14] = positive control not requiring S9 mix, 0.01 μg/plate, Table 16
[15] = 10 times dilution of 0.1 weight % hinokitiol solution
[16] = 20 times dilution of 0.1 weight % hinokitiol solution
[17] = 50 times dilution of 0.1 weight % hinokitiol solution
[18] = 100 times dilution of 0.1 weight % hinokitiol solution

Nc1ccc2cc3ccccc3cc2c1 [2-AA]
No. of revertants, mean in parentheses [1, 7]: 200 colonies/plate | No. of revertants, single plates [1, 7]: 203 colonies/plate and 196 colonies/plate | No. of revertants, mean in parentheses [1, 8]: 208 colonies/plate | No. of revertants, single plates [1, 8]: 197 colonies/plate and 219 colonies/plate | No. of revertants, mean in parentheses [2, 9]: 686 colonies/plate | No. of revertants, single plates [2, 9]: 683 colonies/plate and 688 colonies/plate | No. of revertants, mean in parentheses [2, 10]: 649 colonies/plate | No. of revertants, single plates [2, 10]: 647 colonies/plate and 650 colonies/plate

NC(=O)/C(=C\c1ccc([N+](=O)[O-])o1)c1ccco1 [AF-2]
No. of revertants, mean in parentheses [1, 11]: 733 colonies/plate | No. of revertants, single plates [1, 11]: 747 colonies/plate and 718 colonies/plate | No. of revertants, mean in parentheses [1, 12]: 692 colonies/plate | No. of revertants, single plates [1, 12]: 698 colonies/plate and 686 colonies/plate | No. of revertants, mean in parentheses [2, 13]: 370 colonies/plate | No. of revertants, single plates [2, 13]: 377 colonies/plate and 363 colonies/plate | No. of revertants, mean in parentheses [2, 14]: 410 colonies/plate | No. of revertants, single plates [2, 14]: 408 colonies/plate and 412 colonies/plate

CC(C)c1cccc(=O)c(O)c1 [Hinokitiol, β-Thujaplicin]
growth [3, 15]: − | growth [3, 16]: + | growth [3, 17]: + | growth [3, 18]: + | concentration of hinokitiol in water basis obtainable ([4]; extracts plus glycerin fatty acid ester and cara saponine, no alcohol): 10 weight % | water solubility of hinokitiol as a single substance, in our experiment ([4]; in water): ≤ 0.1 weight % | hinokitiol water solution obtainable ([4]; mixed with extract of aloe vera, green tea, low striped bamboo and dokudami): 1.0 weight % | growth [5, 15]: − | growth [5, 16]: + | growth [5, 17]: + | growth [5, 18]: + | hinokitiol concentration of the highest dilution that is effective (MIC method) ([5]; E-coli and Aspergillus niger): 0.01% | water solubility of hinokitiol as a single substance, maximum as has been said ([6]; in water): ≤ 0.2 weight % | hinokitiol water solution obtainable ([6]; with the addition of ethanol, known fact): 5 weight %
